Measurements reported in patent US10183027B2, “Lanthanide toolbox for multi-modal, non-invasive tumor specific theranostic prodrugs” (priority 2016, dated 2019).
Values joined by “and” are separate entries in the source; they are usually repeats but may differ in a detail not shown here. Equal values may be shown once.

Assays:
Plasmid DNA [1] = test: Agarose gel electrophoresis of plasmid DNA with RuEuL / EuL; type: biochemical; settings: 20 μM
Description: Furthermore, the interaction of photo-activated RuEuL with DNA was examined by agarose gel electrophoresis (FIG. 24). Plasmid DNA (22.5 μg/mL in Tris/EDTA (TE) buffer) was incubated with the compounds (20 μM), irradiated by 488 nm light (dose 50 J m^−2) or not (control) and then subjected to 1% agarose gel electrophoresis. The separated DNA was stained with GelRed Nucleic Acid Stain (BIOTIUM) and imaged using Tanon 1600 Gel Imaging System (Tanon Science & Technology Co., Ltd).

HeLa cells [2] = test: Dark and photo cytotoxicity of RuEuL against HeLa cells; type: cell-based, human; settings: HeLa
Description: To determine the potential of RuEuL as a photo-controlled prodrug cell cytotoxicity studies were performed on human cervical cancer (HeLa) cells, and EuL as control (FIGS. 25A and 25B). Cells were incubated 6 hours in the dark before irradiation (488 nm, 1 J); dark controls were run in parallel.

[3] = Photo-induced dissociation and dark stability of RuEuL in aqueous solution; type: physicochemical
Description: The photo-induced dissociation of RuEuL was simultaneously studied by emission (FIG. 21) spectroscopy, and by HPLC (FIG. 22) of the RuEuL solution (5 μM in H2O) after continuous irradiation with visible light (λirr.=488 nm, 1 W) during various times (1-8 min). After irradiation, turned-on europium emission is observed. This observation can be explained by the existence of dissociative states on Ru(II), which were proposed by Saddler et al. The photo-dissociation products, EuL and [Ru(OH)(bpy)2(H2O)]^+, have been further qualitatively identified by HPLC (FIG. 22). Before light irradiation, only one HPLC peak corresponding to RuEuL (retention time, R=11.3 min) is observed. After irradiation, this peak disappears, and two peaks of dissociated photoproducts appear.
In order to obtain the exact amount of the photo-released ruthenium(II) moiety for biomedical purpose and to evaluate drug release in real time, quantitative analysis is required. It can be achieved by LC/ESI-MS for simultaneous detection of the photo-products EuL and [Ru(OH)(bpy)2(H2O)]^+. Moreover, the switchable europium(III) emission can be considered as a real-time signaling technique for the released anticancer Ru(II) complexes and can also be exploited quantitatively. […]

HeLa cells [4] = test: Confocal microscopy of light-induced cytotoxicity of RuEuL; type: cell-based, human; settings: 50 μM RuEuL or 10 μM PtEuL, 6 hours, 7 mW
Excerpt: The light-induced cytotoxicity of RuEuL towards HeLa cells was also investigated by confocal microscopy (FIG. 26B) with the PtEuL complex tested under identical conditions for comparison. […] In cell culture studies, red Eu(III) emission from RuEuL was observed after 15-min irradiation. (FIG. 26A) The emission intensity increased with longer irradiation time because more excitation energy induced the dissociation of more Ru(II) moieties from the parent molecules, and the resulting EuL units generated stronger light emission. […] PtEuL is photo-activated upon ultraviolet A irradiation (λ=365 nm). However, UVA irradiation could cause severe adverse effects on human cells.

[5] = T1 weighted in vivo 7T MRI imaging and bio-distribution; set-up: species or system BALB/c mice
Description: In vivo 7T MRI measurements of the disclosed compounds in normal mice were conducted. The images were acquired at various time points after solutions of commercial GdDOTA complex (DOTAREM), GdL and PtGdL were injected. […] GdL was immediately captured by the liver, spleen and the kidneys (FIGS. 13A and 14A). […] In comparison to GdDOTA, GdL presents a similar pattern of biodistribution in the kidneys but a slower clearance rate in the liver (0.002 vs 0.016 enh/min). However, PtGdL presents a delayed capture, longer remanence and clearance compared to GdL.
All animal experiments were performed in accordance with the institutional animal protocol guidelines in place at Paris Descartes University, (saisine CEEA34.JS.142.1) and approved by the Institute's Animal Research Committee.
Wild-type female 8 weeks BALB/c mice (Elevage Janvier, Le Genest-St-Isle, France) were anaesthetized with isoflurane (1.5%, with air/O2 0.5/0.25 L·min^−1) inhalation and placed in a dedicated contention cradle. 300 μL of Gadolinium complexes in 0.9% physiological serum were intravenously injected via the tail vein while the mouse was in the scanner. For reproducibility studies, 3 mice per group were injected (n=3).
The scanning protocol was developed using Bruker Paravision 5.1 software. DCE Dynamic contrast Enhanced sequence was recorded using Intragate Flash multislices for motion free artifacts T1 weighted sequence (TR=100 ms, TE=4 ms, alpha=80°). The final images have a spatial resolution of […] in plane. The total scan time was in the order of 3 min 14 s per images. The dynamic follow-up is measured during in a scan time of 40 minutes.
To study the biodistribution of each complex, several regions of interest (ROI) were monitored: the liver, muscle, spleen, kidney, and vessels. The corresponding MRI intensity related to the amount of the Gd complex contrast agents was plotted versus time to visualize the uptake and clearance of each complex into the organs. Comparison with commercial GdDOTA (DOTAREM, Guerbet, France) was also performed at the corresponding concentration of Gd (10 mM).

HeLa cells [6] = test: MTT dark cytotoxicity in HeLa cells (PtGdL study); type: cell-based, human; settings: 24 hours
Description: (§1) Human cervical cancer HeLa cells were grown in Dulbecco's Modified Eagle Medium (DMEM). Human lung diploid fibroblasts-MRC-5 and prostate stromal-WPMY-1 cells were obtained from the cell resource center of Shanghai Institute of Biological Sciences, Chinese Academy of Sciences. MRC-5 and WPMY-1 are growth in MEM (GIBCO 41500034) and supplemented with 10% (v/v) fetal bovine serum, 1% penicillin and streptomycin at 37° C. and 5% CO2. […] After that, formazan was fully dissolved in DMSO through oscillation. Finally, the absorbance of solution was measured with Biotek Power wave xsMicroplate Reader at the wavelength of 570 nm and 690 nm.

WPMY-1 cells = test: MTT dark cytotoxicity in WPMY-1 cells (PtGdL study); type: cell-based, human; settings: 24 hours
Description: as §1

HeLa cells [7] = test: Two-photon induced activation, in vitro imaging and photo-cytotoxicity of PtGdL; type: cell-based, human
Description: The cells were incubated with PtGdL (1, 2, 5, 10 μM) for 12 hours. The complexes (cell impermeable and dissolved in the medium) were washed out with PBS buffer. The cells with complexes were placed in the tissue culture chamber (5% CO2, 37° C.) inside the two-photon confocal microscope. In vitro images were captured by using the Leica SP8 (upright configuration) confocal microscope which equipped with femto-second laser (wavelength: 700 to 1000 nm) and 40×/60× oil immersion objective. […]

Plasmid DNA [8] = test: Agarose gel electrophoresis of plasmid DNA after UVA irradiation (PtEuL); type: biochemical; settings: 20 μM, UVA light dose 50 J m^−2
Excerpt: The DNA gel images were obtained using GelRed Nucleic Acid Stain (BIOTIUM).
Direct binding of PtEuL with DNA in dark were studied by circular dichroism (CD). […] The interaction of photo-activated PtEuL with DNA was examined by agarose gel electrophoresis (FIG. 29B). After UVA irradiation with PtEuL, conversion of the supercoiled conformer of the plasmid DNA to its open-circular conformer, which indicates DNA nicking (single strand break) and linear conformer, which indicates double strand break, is clearly seen.

[9] = Dynamic light scattering of PtGdL solution; type: physicochemical; settings: aqueous solution, 25.0° C.
Description: Dynamic Light Scattering (DLS) to investigate the presence of aggregates in a PtGdL solution was performed in Mavernm Zetasizer Nano-S equipment, at 25.0° C.

[10] = Photo-induced dissociation of the cisplatin unit in tris buffer monitored by emission; type: physicochemical; settings: tris buffer pH 7.4, UV 365 nm, 5 mW
Description: One of the key issues is the photodissociation level of the Pt moiety from the compounds described herein. The triplet states of the chromophores before and after photo-release the drug or upon binding with αvβ3 isoform were measured. Based on the synthetic protocols described herein, La (lanthanum) and Gd (gadolinium) analogs can be synthesized to measure the triplet states of the chromophores as well. The measurements of the triplet states of these chromophores phosphorescence and their phosphorescence lifetime was undertaken at low temperature (77K). The photodissociation kinetics of PtEuL were investigated by monitoring the emission spectrum with different irradiation times of UVA/NIR (light dosage=4 J cm^−2). The plot of responsive and initial emission intensity at 615 nm (^5D0→^7F2) vs time will be fitted in the exponential growth and decay equation to obtain the pseudo-first order rate constant.
The linear light induced dissociation of PtGdL in tris buffer (20 mM Tris base, 50 mM NaCl, pH 7.4) was monitored by determination of the emission intensity of solution of PtGdL in tris buffer with different light dosage of 365 nm UV light. In general, 3 mL of the solution of PtGdL (3 μM in tris buffer) in a 3.5 mL quartz cuvette was irradiated with a 365 nm UV lamp (5 mW) with stirring. The emission spectra of the solution were recorded at different time points (0, 1, 3, 5, 7, 10, 15, 20, 30, 45, 60, 75 and 90 min).
(Ln=Eu or Gd). The solution-state electronic adsorption and emission spectra of all the complexes and the ligand were recorded at 298 K (FIGS. 28A-28D). The EuL complex is the product of PtEuL after photo-dissociation and was used to monitor the photo-dissociation of [Pt—(NH3)2Cl]^+ from PtEuL. […] The photo-dissociation of PtEuL (3 μM in Tris-buffer, pH=7.4, 50 mM NaCl) was monitored by the variation of the Eu emission (λem=615 nm, ^5D0→^7F2) with the irradiation time. […] The pseudo-first order rate constant k was determined to be 0.53 min^−1 under these experimental conditions (FIG. 28D).

In the case of `O.O=C([O-])CN1CCN(CC(=O)[O-])CCN(Cc2cc(C#Cc3ccc(NC(=O)c4cc[n+]([Ru-4]56([Cl])([n+]7ccccc7-c7cccc[n+]75)[n+]5ccccc5-c5cccc[n+]56)cc4)cc3)ccn2)CCN(CC(=O)[O-])CC1.[Cl-].[Eu+3]` [RuEuL], the “migration of DNA with light excitation” value (Plasmid DNA [1]; 488 nm light, dose 50 J m^−2) is reported as “delayed”, the “migration of DNA without irradiation” value (Plasmid DNA [1]; control lanes) is reported as “left the DNA intact and showed normal migration” and the IC50 (HeLa cells [2]; 6 hours in the dark then irradiation (488 nm, 1 J), read-out: light IC50) is reported as 32.5 µM. The IC50 (HeLa cells [2]; dark, read-out: dark IC50) was over 200 µM, the “pseudo-first order rate constant k of photo-dissociation” value ([3]; 5 μM in H2O, visible laser irradiation, 1 W) was 0.43 min⁻¹ and the “stability in the dark” value ([3]; dark, 37° C., 24 hours) was “stable”. For the same molecule, the “cell damage and red emission on 488 nm laser irradiation” value (HeLa cells [4]) was “cell lysis was detected after 15-min irradiation”.
With `O=C([O-])CN1CCN(CC(=O)[O-])CCN(CC(=O)[O-])CCN(CC(=O)[O-])CC1.[Gd+3]` [GdDOTA, reference compound] the “clearance rate in the liver” value ([5]; mice, i.v. tail vein) was 0.016 enh/min.
In the case of `O.O=C([O-])CN1CCN(CC(=O)[O-])CCN(Cc2cc(C#Cc3ccc(NC(=O)c4ccncc4)cc3)ccn2)CCN(CC(=O)[O-])CC1.[Gd+3]` [GdL], the “decrease of signal enhancement” value ([5]; 4 hours after injection) is reported as 90%, the “clearance rate in the liver” value ([5]; mice, i.v. tail vein) is reported as 0.002 enh/min and the IC50 (HeLa cells [6]) is reported as over 200 µM. For the same molecule, the IC50 (WPMY-1 cells) was over 200 µM and the “cell death, control under the same experimental conditions” value (HeLa cells [7]; with 730 nm laser irradiation) was “no significant cell death”.
In the case of `N.N.[Cl][Pt][Cl]` [cisplatin, reference compound], the DNA photocleavage activity (Plasmid DNA [8]) is reported as “less significantly”.
With `O.O=[N+]([O-])[O-].[Gd+3].[NH3+][Pt-2]([NH3+])([Cl])[n+]1ccc(C(=O)Nc2ccc(C#Cc3ccnc(CN4CCN(CC(=O)[O-])CCN(CC(=O)[O-])CCN(CC(=O)[O-])CC4)c3)cc2)cc1` [PtGdL] the “PDI (DLS)” value [9] was 0.156, the “size of aggregates in solution (DLS)” value ([9]; single peak) was 672±24 nm and the “change of signal enhancement” value ([5]; after 24 hours) was “did not change greatly”. For the same molecule, the “remanence time in renal cortex” value ([5]; mice, i.v. tail vein) was 4 to 18 h, the “delay in capture, depending on the tissue of interest” value ([5]; mice, liver, spleen, kidneys) was 6 to 9 min and the IC50 (HeLa cells [6]) was ~23.6 µM and ~25 µM. For the same molecule, the IC50 (WPMY-1 cells) was 43.9 ± 1.1 µM, the “pseudo-first order rate constant k for the dissociation of the cisplatin unit” value [10] was 0.051 min⁻¹ and the “dosage concentration at which dramatic cell death can be observed” value (HeLa cells [7]; 730 nm laser excitation for 30 min) was “less than 5 μM”. For the same molecule, the “emission and cell death absent exposure to laser irradiation” value (HeLa cells [7]; no laser irradiation) was “no significant emission and/or cell death”.
